The record followed here is ChEMBL document CHEMBL1137808, “Biologically active proteins from natural product extracts” (J Nat Prod, 2001).

SMILES strings stand for the structures. ≈ marks a conversion by molar mass, not a printed value. Bridge positions count the residues as written; N and C are the ends. Peptide text beside a SMILES is read from it.

The test system of one experiment is Human immunodeficiency virus 1. The experiment can be described thus: Antiviral activity against HIV1.
Settings: not given
Format: functional, organism-based.
Usually EC50 stands for the midpoint of the concentration-response curve. In turn, `CC[C@H](C)[C@@H]1NC(=O)[C@H](CO)NC(=O)[C@H]([C@@H](C)O)NC(=O)[C@H](Cc2ccc(O)cc2)NC(=O)[C@@H]2CSSC[C@@H]3NC(=O)[C@H](C(C)C)NC(=O)[C@H](CCCCN)NC(=O)[C@H](CC(N)=O)NC(=O)[C@H](CCC(=O)O)NC(=O)[C@@H]4CSSC[C@H](NC(=O)[C@H](CO)NC(=O)[C@H](CCC(=O)O)NC(=O)CNC(=O)[C@H](CSSC[C@H](NC(=O)[C@H](CC(N)=O)NC(=O)[C@H](Cc5ccccc5)NC1=O)C(=O)N[C@@H](CCCCN)C(=O)N4)NC(=O)[C@@H]1CCCN1C(=O)[C@H]([C@@H](C)CC)NC(=O)[C@H](CCCCN)NC(=O)[C@H](CC(=O)O)NC(=O)[C@H](Cc1cnc[nH]1)NC(=O)[C@H](Cc1ccc(O)cc1)NC3=O)C(=O)N[C@@H](C(C)C)C(=O)N[C@@H](Cc1c[nH]c3ccccc13)C(=O)N[C@@H]([C@@H](C)CC)C(=O)N1CCC[C@H]1C(=O)N2` [CIRCULIN D] (cyclo(CENKVCYHDKIPCGESCVWIPCYTSIFNCK); disulfide 1-17, 6-22, 13-29) registered an EC50 of 40 nM.
The compound `CC[C@H](C)[C@@H]1NC(=O)[C@@H]2CSSC[C@@H]3NC(=O)[C@H](C(C)C)NC(=O)[C@H](CCCCN)NC(=O)[C@H](CO)NC(=O)[C@H](CCCCN)NC(=O)[C@@H]4CSSC[C@H](NC(=O)[C@H](CO)NC(=O)[C@H](CCC(=O)O)NC(=O)CNC(=O)[C@H](CSSC[C@H](NC(=O)CNC(=O)[C@H](C)NC(=O)[C@H](C(C)C)NC(=O)[C@H](CO)NC(=O)[C@H]([C@@H](C)O)NC1=O)C(=O)N[C@@H](CO)C(=O)N4)NC(=O)[C@@H]1CCCN1C(=O)[C@H]([C@@H](C)CC)NC(=O)CNC(=O)[C@H](CC(N)=O)NC(=O)[C@H](CCCNC(=N)N)NC(=O)[C@H](Cc1ccc(O)cc1)NC3=O)C(=O)N[C@@H](C(C)C)C(=O)N[C@@H](Cc1ccccc1)C(=O)N[C@@H]([C@@H](C)CC)C(=O)N1CCC[C@H]1C(=O)N2` [CIRCULIN C] (cyclo(AGCSCKSKVCYRNGIPCGESCVFIPCITSV); disulfide 3-17, 5-21, 10-26) came in with an EC50 of 40 nM.
`CC[C@H](C)[C@@H]1NC(=O)[C@@H]2CSSC[C@@H]3NC(=O)[C@H](C(C)C)NC(=O)[C@H](CCCCN)NC(=O)[C@H](CC(N)=O)NC(=O)[C@H](CCCCN)NC(=O)[C@@H]4CSSC[C@H](NC(=O)[C@H](CO)NC(=O)[C@H](CCC(=O)O)NC(=O)CNC(=O)[C@H](CSSC[C@H](NC(=O)CNC(=O)[C@H](CC(C)C)NC(=O)[C@H](C)NC(=O)[C@H](C)NC(=O)[C@H](CO)NC1=O)C(=O)N[C@@H](CO)C(=O)N4)NC(=O)[C@@H]1CCCN1C(=O)[C@H]([C@@H](C)CC)NC(=O)CNC(=O)[C@H](CC(N)=O)NC(=O)[C@H](CCCNC(=N)N)NC(=O)[C@H](Cc1ccc(O)cc1)NC3=O)C(=O)N[C@@H](C(C)C)C(=O)N[C@@H](Cc1c[nH]c3ccccc13)C(=O)N[C@@H]([C@@H](C)CC)C(=O)N1CCC[C@H]1C(=O)N2` [CIRCULIN A] (cyclo(AALGCSCKNKVCYRNGIPCGESCVWIPCIS); disulfide 5-19, 7-23, 12-28) displayed an EC50 of 40 nM.
On to `CC[C@H](C)[C@@H]1NC(=O)[C@H](C)NC(=O)[C@H](C)NC(=O)[C@H](CO)NC(=O)[C@H]([C@@H](C)CC)NC(=O)[C@@H]2CSSC[C@@H]3NC(=O)[C@H](C(C)C)NC(=O)[C@H](CCCCN)NC(=O)[C@H](CC(N)=O)NC(=O)[C@H](CCCCN)NC(=O)[C@@H]4CSSC[C@H](NC(=O)[C@H](CO)NC(=O)[C@H](CCC(=O)O)NC(=O)CNC(=O)[C@H](CSSC[C@H](NC(=O)CNC1=O)C(=O)N[C@@H](CO)C(=O)N4)NC(=O)[C@@H]1CCCN1C(=O)[C@H]([C@@H](C)CC)NC(=O)[C@H](C)NC(=O)[C@H](CCCNC(=N)N)NC(=O)[C@H](Cc1ccc(O)cc1)NC3=O)C(=O)N[C@@H](C(C)C)C(=O)N[C@@H](Cc1c[nH]c3ccccc13)C(=O)N[C@@H]([C@@H](C)CC)C(=O)N1CCC[C@H]1C(=O)N2` [CIRCULIN F] (cyclo(AAIGCSCKNKVCYRAIPCGESCVWIPCIS); disulfide 5-18, 7-22, 12-27), for which the EC50 is 40 nM.
As for `CC[C@H](C)[C@@H]1NC(=O)[C@@H]2CSSC[C@@H]3NC(=O)[C@H](C(C)C)NC(=O)[C@H](CCCCN)NC(=O)[C@H](CC(N)=O)NC(=O)[C@H](CCCCN)NC(=O)[C@@H]4CSSC[C@H](NC(=O)[C@H](CO)NC(=O)[C@H](CCC(=O)O)NC(=O)CNC(=O)[C@H](CSSC[C@H](NC(=O)CNC(=O)[C@H](CC(C)C)NC(=O)[C@H](CC(C)C)NC(=O)[C@H]([C@@H](C)O)NC(=O)[C@H](CO)NC1=O)C(=O)N[C@@H](CO)C(=O)N4)NC(=O)[C@@H]1CCCN1C(=O)[C@H]([C@@H](C)CC)NC(=O)[C@H](C(C)C)NC(=O)CNC(=O)[C@H](CC(N)=O)NC(=O)[C@H](CCCNC(=N)N)NC(=O)[C@H](Cc1ccc(O)cc1)NC3=O)C(=O)N[C@@H](C(C)C)C(=O)N[C@@H](Cc1ccccc1)C(=O)N[C@@H]([C@@H](C)CC)C(=O)N1CCC[C@H]1C(=O)N2` [CIRCULIN B] (cyclo(CGESCVFIPCISTLLGCSCKNKVCYRNGVIP); disulfide 1-17, 5-19, 10-24), a half-maximal effect (EC50) was put at 40 nM.
As to `CC[C@H](C)[C@@H]1NC(=O)[C@H](CCCCN)NC(=O)[C@H](CC(=O)O)NC(=O)[C@H](Cc2cnc[nH]2)NC(=O)[C@H](Cc2ccc(O)cc2)NC(=O)[C@@H]2CSSC[C@@H]3NC(=O)[C@@H]4CCCN4C(=O)[C@H]([C@@H](C)CC)NC(=O)[C@H](Cc4c[nH]c5ccccc45)NC(=O)[C@H](C(C)C)NC(=O)[C@@H]4CSSC[C@H](NC(=O)[C@H](CCCCN)NC(=O)[C@H](CSSC[C@H](NC(=O)[C@@H]5CCCN5C1=O)C(=O)NCC(=O)N[C@@H](CCC(=O)O)C(=O)N[C@@H](CO)C(=O)N4)NC(=O)[C@H](CC(N)=O)NC(=O)[C@H](Cc1ccccc1)NC(=O)[C@H](C(C)C)NC(=O)[C@H](CO)NC(=O)[C@H]([C@@H](C)O)NC(=O)[C@H](CC(C)C)NC3=O)C(=O)N[C@@H](CCC(=O)O)C(=O)N[C@@H](CC(N)=O)C(=O)N[C@@H](CCCCN)C(=O)N[C@@H](C(C)C)C(=O)N2` [CIRCULIN E] (cyclo(CENKVCYHDKIPCGESCVWIPCLTSVFNCK); disulfide 1-17, 6-22, 13-29), the EC50 came out at 40 nM.

The next experiment has as its system Human immunodeficiency virus. Description: Antiviral activity against HIV infected in human MOLT4 cells assessed as inhibition of virus-induced cytopathic effect. Format: functional, organism-based. To be noted: Human immunodeficiency virus 1, MOLT-4.
On to `CC(C)[C@@H]1NC(=O)[C@H](CCCNC(=N)N)NC(=O)[C@H](Cc2ccccc2)NC(=O)[C@@H](NC(=O)[C@H](Cc2c[nH]c3ccccc23)NC(=O)[C@H](CCCNC(=N)N)NC(=O)[C@@H](N)CCCNC(=N)N)CSSC[C@@H]2NC(=O)[C@H](Cc3ccccc3)NC(=O)CNC(=O)[C@H](CCCCN)NC(=O)[C@H](Cc3ccc(O)cc3)NC(=O)[C@H](CSSC[C@@H](C(=O)N[C@@H](CCCNC(=N)N)C(N)=O)NC(=O)[C@H](CCCCN)NC(=O)[C@H](CCCNC(=N)N)NC(=O)[C@H](Cc3ccc(O)cc3)NC2=O)NC1=O` [POLYPHEMUSIN II] (H-RRWCFRVCYKGFCYRKCR-NH2; disulfide 4-13, 8-17), for which the EC50 is 8 ng/mL (≈ 3.3 nM).
